Results taken from PubChem BioAssay (NCI).
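Interpolation was linear, between the two tested concentrations surrounding the appropriate level; five concentrations were tested over 48 hours in 96-well plates. GI50: concentration for 50% inhibition of growth. TGI: concentration producing complete growth inhibition.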

Tests used:
Assay in all cases: NCI tumour cell line growth inhibition, 48 h
[1] = test system: CAKI-1 renal
[2] = test system: DU-145 prostate
[3] = test system: HOP-92 NSCLC
[4] = test system: KM12 colon
[5] = test system: MDA-MB-231 breast
[6] = test system: RPMI-8226 leukemia
[7] = test system: SF-539 CNS
[8] = test system: SNB-75 CNS
[9] = test system: SW-620 colon
[10] = test system: UO-31 renal

For `COc1ccc(-c2ccc(-c3ccc(C(=N)N)nc3)s2)cc1Cl`, the GI50 [1] was 1740 nM, the TGI [1] was 3120 nM and the GI50 [2] was 1770 nM. For the same molecule, the TGI [2] was 3150 nM, the GI50 [3] was 1630 nM and the TGI [3] was 3410 nM. The GI50 [4] was 1810 nM, the TGI [4] was 3320 nM and the GI50 [5] was 1700 nM. The TGI [5] was 3380 nM, the GI50 [6] was 2250 nM and the TGI [6] was 4900 nM. The GI50 [7] was 1740 nM, the TGI [7] was 3170 nM and the GI50 [8] was 1430 nM. The TGI [8] was 2800 nM, the GI50 [9] was 1790 nM and the TGI [9] was 3370 nM. It also gave a GI50 [10] of 1550 nM and a TGI [10] of 2910 nM.
